Results: patent US6140341A, “Aminoalkyl and acylaminoalkyl ethers, process for their preparation, and their use as bradykinin receptor antagonists” (Hoechst Aktiengesellschaft, priority 1996, dated 2000)

Experiments:
[1] = test system: bradykinin-induced contraction of the guinea pig ileum; test: Bradykinin-antagonistic effect on the bradykinin-induced contraction of the isolated guinea pig ileum; conditions: Cavia porcellus, 10 min, Tyrode solution 37° C., antagonist action time 10 min
Text: Furthermore, to determine the bradykinin-antagonistic effect of the compounds of the formula (I) it is possible to measure their effect on the bradykinin-induced contraction of the guinea pig ileum by the following protocol:
Guinea pigs weighing about 300 g (Morioth strain,--) are sacrificed by a blow to the back of the neck and are exsanguinated. A length of about 20 cm of ileum is dissected out and rinsed with Tyrode solution (Record syringe), thus removing intestinal contents. It is then divided into segments 1.5 cm long. These are fixed in organ baths with a capacity of 10 ml which are filled with Tyrode solution, and are connected to strain gauges (isometric contraction measurement). The initial load is 1 g. The Tyrode solution is heated in a water bath to 37° C., and compressed air is bubbled through.
After an interval of 30 min, the experiment is started. After recording the biological zero line, bradykinin is added to each organ bath in a final concentration of […], and the concentration is recorded. Then, after rinsing with Tyrode solution for 3 min and a resting period of 20 min, bradykinin is again added. The maximum contraction is reached (control). Rinsing and resting period repeated. The bradykinin antagonist is then added (action time 10 min.). […] The experiment is recorded on a pen recorder. […]

bradykinin B2 receptor = target: T1, bradykinin B2 receptor (Cavia porcellus, UniProt O70526); test: Affinity for the bradykinin B2 receptor on membrane preparations from guinea pig ileum (3H-bradykinin competition); type: binding; conditions: 3H-bradykinin (0.25 to 0.3 nMol/l), guinea pig ileum membranes, pH 6.8, room temperature, 60 minutes
T1 construct: preparations of membranes from the guinea pig ileum; from tissue; host or cells: guinea pig ileum membranes
T1 sequence (O70526 1-372): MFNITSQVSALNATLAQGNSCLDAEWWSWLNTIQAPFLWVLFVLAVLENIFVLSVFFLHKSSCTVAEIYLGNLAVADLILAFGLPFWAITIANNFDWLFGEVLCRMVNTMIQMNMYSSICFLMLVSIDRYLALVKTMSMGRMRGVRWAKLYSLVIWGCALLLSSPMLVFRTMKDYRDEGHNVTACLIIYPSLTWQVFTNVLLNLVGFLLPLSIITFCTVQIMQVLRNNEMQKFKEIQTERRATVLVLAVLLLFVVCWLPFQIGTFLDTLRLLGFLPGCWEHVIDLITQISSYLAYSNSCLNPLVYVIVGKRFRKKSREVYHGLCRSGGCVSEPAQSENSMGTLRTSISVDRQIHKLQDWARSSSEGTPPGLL
Protocol: Determination of the affinity of the compounds of the formula (I) for the bradykinin B2 receptor took place on preparations of membranes from the guinea pig ileum (R. B. Innis et al., Proc. Natl. Acad. Sci. USA; […] (1981) 2630) by the following method:
1. Ligand: ^3 H-BRADYKININ (from NEN Du Pont)
25 mM TES (SIGMA, Order No.: T-4152)
1 mM 1,10-phenanthroline (SIGMA; Order No.: P-9375)
25 mM TES (SIGMA; Order No.: T-4152)
0.1% albumin, bovine (SIGMA; Order No.: A-7906)
140 μg/ml bacitracin (SIGMA; Order No.: B-0125)
1 mM dithiothreitol (SIGMA; Order No.: D-0632)
1 μM captopril-1-[(2S)-3-mercapto-2-methylpropionyl]-L-proline
Both buffers are adjusted to pH 6.8 with 5 molar NaOH.
Guinea pig ilea are carefully squeezed out to remove most of the intestinal contents and are cleaned in 0.9% strength NaCl solution.
The pieces of ilea about 2 cm long are transferred into ice-cold TES buffer (about 1 g/10 ml) and homogenized with an Ultraturrax in an ice bath for about 30 sec. The homogenate is then filtered through 3 layers of gauze and the filtrate is centrifuged at 50,000 g for 10 minutes.
The supernatant is discarded, and the pellet is rehomogenized in the same volume of TES buffer and again centrifuged at 50,000 g for 10 minutes. The pellet is rehomogenized in incubation buffer (about 1 g/5 ml) and frozen in 2 ml portions in cryotubes at -70° C.
The protein concentration in the finished membrane suspension is determined by the LOWRY method and should be about 15 μg/100 μl.
All the incubations are carried out in a volume of 200 μl in microtiter plates (96×300 μl) at room temperature for 60 minutes. All mixtures in incubation bufler. 50 μl of the radioligands, 50 μl of the product to be tested and 100 μl of the membrane suspension are successively pipetted into these in the wells of the microtiter plate. […]
a) Saturation experiments (hot saturation): […]
Nonspecific binding: The nonspecific binding must be determined for each concentration of the radioactive ligand. […]

Row | IC50 [1] | Ki (bradykinin B2 receptor) | SMILES
1 | 1800 nM | – | Cc1ccc2cccc(OCc3c(Cl)ccc(OCCN)c3Cl)c2n1 [Example 1, 8-[3-(2-aminoethoxy)-2,6-dichlorobenzyloxy]-2-methylquinoline]
2 | – | 20 nM | Cc1ccc2cccc(OCc3c(Cl)ccc(OCCNC(=O)/C=C/c4ccc(N)cc4)c3Cl)c2n1 [Example 2, 8-[3-(2-N-(trans-4-aminocinnamoyl)aminoethoxy)-2,6-dichlorobenzyloxy]-2-methylquinoline]
3 | – | 61 nM | Cc1ccc2cccc(OCc3c(Cl)ccc(OCCNC(=O)/C=C/c4ccccc4)c3Cl)c2n1 [Example 5, 8-[2,6-dichloro-3-(trans-2-N-cinnamoylaminoethoxy)benzyloxy]-2-methylquinoline]
4 | – | 32 nM | COc1ccc(/C=C/C(=O)NCCOc2ccc(Cl)c(COc3cccc4ccc(C)nc34)c2Cl)cc1 [Example 6, 8-[2,6-dichloro-3-(2-N-(trans-4-methoxycinnamoyl)aminoethoxy)benzyloxy]-2-methylquinoline]
